Experiments:
N5STZ rats = experiment: Antidiabetic activity in N5STZ rats (oral, change in glycaemia); type: in vivo; settings: four days of treatment, N5STZ diabetic rats, blood sample two hours after final administration
Protocol: Study of the Antidiabetic Activity in N5STZ Rats
The oral antidiabetic activity of the compounds of the formula (I) was determined on an experimental model of non-insulin-dependent diabetes induced in the rats using steptozotocin.
The model of non-insulin-dependent diabetes is obtained in the rats by means of an injection of steptozotocin on the 5th day after birth.
The diabetic rats used are eight weeks old. The animals are housed, from the day of birth to the day of the experiment, in an animal house at a regulated temperature of 21 to 22° C. and subjected to a fixed cycle of light (from 7 a.m. to 7 p.m.) and darkness (from 7 p.m. to 7 a.m.). Their food consisted of a maintenance diet, and water and food were given “ad libitum”, with the exception of fasting two hours before the tests, during which period the food is removed (post-absorptive state).
The rats are treated orally with the test product for four (D4) days. Two hours after the final administration of the product and 30 minutes after the animals have been anaesthetised with pentobarbital sodium (Nembutal®), a 300 μl blood sample is taken from the end of the tail.
By way of example, results obtained with compound 1 prepared above are collated compared with metformin in the following table.

[1] = system: perfused leg of N5STZ rats; experiment: Sorption of glucose on the perfused leg of N5STZ rats in absence of insulin; type: in vivo; settings: perfused back leg of N5STZ rats; for sorption of glucose: compound 10 μg/mL, 8 mmol/L glucose, n = 4

SMILES | percentage change in the glycaemia on D4 relative to DO (N5STZ rats; 25 mg/kg) | percentage change in the glycaemia on D4 relative to DO (N5STZ rats; 50 mg/kg) | percentage change in the glycaemia on D4 relative to DO (N5STZ rats; 100 mg/kg) | induction of sorption of glucose by the muscle in absence of insulin (in words) [1] | sorption of glucose [1]
CN(C)C(=N)N=C(N)N [Metformin, metformin] | −13% | −22% | −21% | no effect | 32.09 ± 7.25 (n = 4) μmol/g/l
CN(C)C(=N)NC(=N)N1CCCC1.Cl [Compound 1, Dimethylaminoiminomethylpyrrolidinecarboximidamide Hydrochloride] | −6% | −23% | −36% |  | 116.08 ± 20.63 (n = 4) μmol/g/l
